Experimental data: patent US20250302974A1, “LECTIN-DRUG CONJUGATES” (UNICHEM LABORATORIES LIMITED, priority 2021, published 2025)
Read-outs that look alike come from different tables or passages of the source.

Key:
[1] = test system: T24 human bladder carcinoma xenograft; experiment: In vivo anti-tumor potential, xenograft model (tumor volume, TGI, %T/C, body weight, survival); conditions: 5 mg/kg, weekly once
Procedure: (§1) In vivo anti-tumor potential of compound of Formula 16 was evaluated using T24 human bladder carcinoma xenograft model in mice by assessing biological endpoints such as tumor growth and tumor growth inhibition.
(§2) Thirty-five healthy female nude mice bearing T24 tumor with volume of ˜100 mm3 were selected, randomized and allocated into five groups (G1-G5, n=7 animals per group). Body weight of each mouse was recorded on the day of randomization and daily till the end of the study. The tumor size was measured weekly twice from the day of test item/reference drug/vehicle dosing till the end of the experiment. Tumor size was measured by digital caliper (MITUTOYO, Japan) by measuring length and width. Body weight and tumor volume data was statistically analysed using two-way ANOVA (Bonferroni Test). Statistical analysis was conducted using PRISM software, version 5.01.p values of <0.05 were considered as statistically significant. Percentage survival proportions were analyzed by “Kaplan Meier” method.

[2] = test system: T24 human bladder carcinoma xenograft; experiment: Histopathological investigation of tumour tissue; format: in vivo, mice; conditions: 5 mg/kg, weekly once
Procedure: (§9) Effect of compound of Formula 16 was evaluated using T24 human bladder carcinoma xenograft model.

[3] = test system: T24 human bladder carcinoma xenograft; experiment: Effect on immune system (Th1 cytokines, IgM) in xenograft model; format: in vivo, mice
Procedure: as §9

[4] = test system: T24 human bladder carcinoma xenograft; experiment: In vivo anti-tumor potential, T24 human bladder carcinoma xenograft model in female nude mice; conditions: G2, 5 mg/kg, Weekly once
Procedure: as §1, §2

[5] = test system: T24 human bladder carcinoma xenograft; experiment: Histopathological investigation of tumour tissue, T24 xenograft model; format: in vivo, human T24 tumor in nude mice; conditions: G2, 5 mg/kg, Weekly once; 'Moderately Differentiated' wrapped over two lines
Procedure: as §9

[6] = test system: Th1 cytokines; IgM; experiment: Effect on immune system (Th1 cytokines, IgM), T24 xenograft model; format: in vivo, mice
Procedure: as §9

[7] = Cytotoxic effect by MTT assay, 48 h; conditions: human
Procedure: (§3) Cells were treated with Test Items at various concentrations (0.0001 μM-10 μM) for 48 h. The cells corresponding to Positive Control group were treated with Doxorubicin at a concentration ranging from 0.1 μM-100 μM. The Untreated cells were used as Control. After 48 h of incubation, the effect of Test Items on cytotoxicity of cells was determined by MTT assay, the plates were taken out and 20 μl of 5 mg/m1 of MTT 3-(4,5-dimethythiazol-2-yl)-2,5-diphenyl tetrazolium bromide solution was added to all the wells. Cells were incubated for 3 h at 37° C. The supernatant was aspirated. 150 μl of DMSO was added to each well to dissolve formazan crystals. The absorbance of each well was then read at 540 nm using Synergy HT micro plate reader.
(§4) The % Cytotoxicity was calculated using the formula:
(§5) Where, X=Absorbance of cells treated with Test Item; R=Absorbance of Control cells (Untreated cells maintained in growth medium only).
(§6) Selectivity Index was calculated using the formula:
(§7) SI=IC50 in Normal cell/IC50 in cancer cell.
(§8) Activity scores of the Selective Index values were categorized as: • Not selective (SI value ≤1) • Moderately selective (1<SI value <5) • Selective (SI value ≥5)

[8] = test system: AGS Stomach; experiment: Cytotoxic effect by MTT assay, 48 h; conditions: 48 h
Procedure: as §3, §4, §5, §6, §7, §8

[9] = test system: HT29 Colon; experiment: Cytotoxic effect by MTT assay, 48 h; conditions: Homo sapiens, HT-29, 48 h
Procedure: as §3, §4, §5, §6, §7, §8

[10] = test system: KB Cervix; experiment: Cytotoxic effect by MTT assay, 48 h; conditions: 48 h
Procedure: as §3, §4, §5, §6, §7, §8

[11] = test system: MDA-MB-231 Breast; experiment: Cytotoxic effect by MTT assay, 48 h; conditions: Homo sapiens, MDA-MB-231, 48 h
Procedure: as §3, §4, §5, §6, §7, §8

[12] = test system: MG-63 Bone; experiment: Cytotoxic effect by MTT assay, 48 h; conditions: Homo sapiens, MG-63, 48 h
Procedure: as §3, §4, §5, §6, §7, §8

[13] = test system: PA-1 Ovary; experiment: Cytotoxic effect by MTT assay, 48 h; conditions: 48 h
Procedure: as §3, §4, §5, §6, §7, §8

[14] = test system: PANC-1 Pancreatic; experiment: Cytotoxic effect by MTT assay, 48 h; conditions: Homo sapiens, PANC-1, 48 h, read-out: IC50 Values
Procedure: as §3, §4, §5, §6, §7, §8

[15] = test system: T24 Bladder; experiment: Cytotoxic effect by MTT assay, 48 h; conditions: Homo sapiens, 48 h
Procedure: as §3, §4, §5, §6, §7, §8

[16] = test system: U251 MG Brain; experiment: Cytotoxic effect by MTT assay, 48 h; conditions: Homo sapiens, U-251, 48 h
Procedure: as §3, §4, §5, §6, §7, §8

[17] = Cytotoxic effect by MTT assay, 48 h; conditions: human; remark: listed apart in the source
Procedure: as §3, §4, §5, §6, §7, §8

[18] = test system: A549 Lungs; experiment: Cytotoxic effect by MTT assay, 48 h; conditions: Homo sapiens, A549, 48 h, read-out: IC50 Values
Procedure: as §3, §4, §5, §6, §7, §8

[19] = Cytotoxic effect by MTT assay, 48 h
Procedure: as §3, §4, §5

[20] = test system: PBMC Normal; experiment: Cytotoxic effect by MTT assay, 48 h; conditions: PBMC, 48 h, read-out: IC50 Values
Procedure: as §3, §4, §5

[21] = read-out: Percent cytotoxicity wrt control

N.N.[Cl][Pt][Cl] [Cisplatin]
Percent survival [1]: 100%
Tumor growth delay [1]: 10.5 days
Percent T/C Day 22 ([1]; Day 22): 59.18%
Percent TGI Day 22 ([1]; Day 22): 40.82%
Tumor volume Day 22 ([1]; Day 22): 622.6 cu · mm
Percent body weight change Day 22 ([1]; Day 22, nude mice bearing T24 tumor): 6.3%
Apoptosis [2]: Mild
Grade [2]: 2 (Grade 2 (Moderately Differentiated) - <25-50% cells anaplastic)
Grade (differentiation in words) [2]: Moderately
Immunoglobulins IgG ([3]; 5 mg/kg, i.p. (q7dX2)): 54 ng/mL
Immunoglobulins IgM ([3]; 5 mg/kg, i.p. (q7dX2)): 18 ng/mL
Th1 cytokines IFN gamma ([3]; 5 mg/kg, i.p. (q7dX2)): 80.8 pg/mL
Th1 cytokines IL-2 ([3]; 5 mg/kg, i.p. (q7dX2)): 259.3 pg/mL
Th2 cytokines IL-4 ([3]; 5 mg/kg, i.p. (q7dX2)): 60 pg/mL
Th2 cytokines IL-10 ([3]; 5 mg/kg, i.p. (q7dX2)): BLQ
IgM level ([3]; mouse, in vivo): reduction in IgM
Percent T/C Day 22 (Test/Control) [4]: 59.18%
Percent TGI Day 22 (Tumor Growth Inhibition) [4]: 40.82%
Grade (differentiation) [5]: Moderately
IFN gamma (Th1 cytokine) ([6]; G2, 5 mg/kg, i.p. (q7dX2)): 80.8 pg/mL
IL-2 (Th1 cytokine) ([6]; G2, 5 mg/kg, i.p. (q7dX2)): 259.3 pg/mL
IL-4 (Th2 cytokine) ([6]; G2, 5 mg/kg, i.p. (q7dX2)): 60 pg/mL
IL-10 (Th2 cytokine) ([6]; G2, 5 mg/kg, i.p. (q7dX2)): BLQ
IgG ([6]; G2, 5 mg/kg, i.p. (q7dX2)): 54 ng/mL
IgM ([6]; G2, 5 mg/kg, i.p. (q7dX2)): 18 ng/mL
IgM ([6]; T24 xenograft model): reduction in IgM

COc1cccc2c1C(=O)c1c(O)c3c(c(O)c1C2=O)C[C@@](O)(C(=O)CO)C[C@@H]3O[C@H]1C[C@H](N)[C@H](O)[C@H](C)O1 [Doxorubicin]
cytotoxicity at 48 h, 0.1 µM [7]: -3.4%
IC50 ([8]; read-out: IC50 Values): 4.3 µM
cytotoxicity at 0.1 µM [8, 21]: 15.6%
cytotoxicity at 1 µM [8, 21]: 72.4%
cytotoxicity at 10 µM [8, 21]: 74.5%
cytotoxicity at 50 µM [8, 21]: 74.8%
cytotoxicity at 100 µM [8, 21]: 79%
IC50 ([9]; read-out: IC50 Values): 35.3 µM
cytotoxicity at 0.1 µM [9, 21]: 3.2%
cytotoxicity at 1 µM [9, 21]: 1.7%
cytotoxicity at 10 µM [9, 21]: 32.7%
cytotoxicity at 50 µM [9, 21]: 61.9%
cytotoxicity at 100 µM [9, 21]: 59.8%
IC50 ([10]; read-out: IC50 Values): 0.6 µM
cytotoxicity at 0.1 µM [10, 21]: 28.7%
cytotoxicity at 1 µM [10, 21]: 53.1%
cytotoxicity at 10 µM [10, 21]: 95.7%
cytotoxicity at 50 µM [10, 21]: 91.7%
cytotoxicity at 100 µM [10, 21]: 84.2%
IC50 ([11]; read-out: IC50 Values): 2.1 µM
cytotoxicity at 0.1 µM [11, 21]: 3.4%
cytotoxicity at 1 µM [11, 21]: 68%
cytotoxicity at 10 µM [11, 21]: 74.3%
cytotoxicity at 50 µM [11, 21]: 71.3%
cytotoxicity at 100 µM [11, 21]: 58%
IC50 ([12]; read-out: IC50 Values): 0.4 µM
cytotoxicity at 0.1 µM [12, 21]: 35.3%
cytotoxicity at 1 µM [12, 21]: 60.7%
cytotoxicity at 10 µM [12, 21]: 82%
cytotoxicity at 50 µM [12, 21]: 85.5%
cytotoxicity at 100 µM [12, 21]: 75.5%
IC50 ([13]; read-out: IC50 Values): 1 µM
cytotoxicity at 0.1 µM [13, 21]: 19.6%
cytotoxicity at 1 µM [13, 21]: 62.6%
cytotoxicity at 10 µM [13, 21]: 73.2%
cytotoxicity at 50 µM [13, 21]: 79%
cytotoxicity at 100 µM [13, 21]: 71.5%
IC50 [14]: 8.2 µM
IC50 ([15]; read-out: IC50 Values): 5.5 µM
cytotoxicity at 0.1 µM [15, 21]: 21%
cytotoxicity at 1 µM [15, 21]: 34.8%
cytotoxicity at 10 µM [15, 21]: 72.8%
cytotoxicity at 50 µM [15, 21]: 66.6%
cytotoxicity at 100 µM [15, 21]: 52.7%
IC50 ([16]; read-out: IC50 Values): 8.1 µM
cytotoxicity at 0.1 µM [16, 21]: -13.5%
cytotoxicity at 1 µM [16, 21]: 41.7%
cytotoxicity at 10 µM [16, 21]: 57.9%
cytotoxicity at 50 µM [16, 21]: 71%
cytotoxicity at 100 µM [16, 21]: 65.6%
cytotoxicity at 48 h, 0.1 µM [17]: 3.3%
IC50 [18]: 11 µM
cytotoxicity at 48 h, 0.1 µM [19]: 5.3%
cytotoxicity at 48 h, 1 µM [19]: 29.3%
cytotoxicity at 48 h, 10 µM [19]: 37.4%
cytotoxicity at 48 h, 50 µM [19]: 40.5%
cytotoxicity at 48 h, 100 µM [19]: 37.1%
IC50 [20]: > 100 µM
